Source: EP0367033A1, “S-Difluoromethylhomocysteines, preparation process, and insecticidal compositions” (SHIONOGI SEIYAKU KABUSHIKI KAISHA, priority 1988, dated 1990)
≈ marks a conversion by molar mass, not a printed value. Like-named read-outs stand apart in the source and are kept apart here.

What was measured:
[1] = test system: Myzus persicae resistant to malathion and pirimicarb; assay: Foliar spray test on larvae of Myzus persicae, strain resistant to malathion and pirimicarb; type: in vivo; details: for LC50: read-out: LC₅₀ (ppm) Resistant Strain
Method: (§1) A solution of the compound is diluted with distilled water containing Tween 20® at a concentration of 100 ppm to prepare a predetermined concentration of the test solution. Malathion emulsion and pirimicarb wettable powder are diluted with distilled water to prepare a predetermined concentration of the test solution, respectively.
(§2) Myzus persicae (URR-O type) distributed from Chiba University, which were reared for succesive generations, were used as a group of sensitive strains. Myzus persicae resistant to malathion and pirimicarb which were collected from Aburahi Laboratory of Shionogi & Co., Ltd. and reared for succesive generations while selecting those resistant to these drugs were used as a group of resistant strains.
(§3) A polyethylene cup (diameter 6 cm, depth 4 cm) was filled with 0.3 % agar gel and a piece of Chinese cabbage leaf (3x3 cm) was placed on the gel. One apterous adult of Myzus persicae was put on the leaf and allowed to keep at 25 °C for 24 hours to make larviposition. After removal of the adult, 2 ml of the test solution was applied to the foliage under a rotary sprayer; and larvae of Myzus persicae was allowed to keep at 25 °C for 48 hours. Then the mortality of the larvae was determined and the value of LC₅₀ was calculated by the method of Billis. [Bliis, Ann. Appl. Biol.,22, 134;307 (1935)].

[2] = test system: Myzus persicae (URR-O type), sensitive strains; assay: Foliar spray test on larvae of Myzus persicae, sensitive strain; type: in vivo; details: for LC50: read-out: LC₅₀ (ppm) Sensitive Strain
Method: as §1, §2, §3

[3] = 7.8 ppm, larvae, 25 °C, 48 hours after spraying
[4] = 15.6 ppm, larvae, 25 °C, 48 hours after spraying
[5] = 31.3 ppm, larvae, 25 °C, 48 hours after spraying
[6] = 62.5 ppm, larvae, 25 °C, 48 hours after spraying
[7] = 125 ppm, larvae, 25 °C, 48 hours after spraying
[8] = 250 ppm, larvae, 25 °C, 48 hours after spraying
[9] = larvae, 48 hours, ( ) means 95 % confidence limit

Structure (SMILES)	mortality at 7.8 ppm [1, 3] [%]	mortality at 15.6 ppm [1, 4] [%]	mortality at 31.3 ppm [1, 5] [%]	mortality at 62.5 ppm [1, 6] [%]	mortality at 125 ppm [1, 7] [%]	mortality at 250 ppm [1, 8] [%]	LC50 [1, 9] [µg/mL]	mortality at 7.8 ppm [2, 3] [%]	mortality at 15.6 ppm [2, 4] [%]	mortality at 31.3 ppm [2, 5] [%]	mortality at 62.5 ppm [2, 6] [%]	mortality at 125 ppm [2, 7] [%]	mortality at 250 ppm [2, 8] [%]	LC50 [2, 9] [µg/mL]	LC50 ([1]; 48 h) [µg/mL]	LC50 ([2]; 48 h) [µg/mL]
N[C@@H](CCSC(F)F)C(=O)O [Compound I ^a, L-difluoromethylhomocysteine]	5	0	54.2	100	100	100	27.1 (≈ 146 µM)	0	8.7	4.8	57.1	100	100	52.9 (≈ 286 µM)		
CCOC(=O)CC(SP(=S)(OC)OC)C(=O)OCC (stereo not drawn) [malathion, reference compound]															> 2000	136 (≈ 412 µM)
Cc1nc(N(C)C)nc(OC(=O)N(C)C)c1C [pirimicarb, reference compound]															> 1920	8.2 (≈ 34.4 µM)
